Test results: US20020103111A1, “Inhibitors of MAdCAM-1-mediated interactions and methods of use therefor” (Millennium Pharmaceuticals, Inc., priority 1996, published 2002)
Read-outs that look alike come from different tables or passages of the source. Square brackets hold non-standard residues; d marks the D form. Ends that are not written are not given here. Peptide text beside a SMILES is read from it. * marks the point of attachment. Butanoyl(4-pyren-1-yl) = O=C(CCCc1ccc2ccc3cccc4ccc1c2c34)*; Cyclopentanecarbonyl = O=C(C1CCCC1)*; NMeL = CN[C@@H](CC(C)C)C(=O)O

Biological target: T1, murine MAdCAM-1 (MAdCAM-1/mCk fusion protein); α4β7-bearing HUT 78 cells (Homo sapiens, UniProt P13612+P26010)
T1 construct: host or cells: HUT 78 cells (endogenous α4β7); The MAdCAM-1/mCk partner was made in house in baculovirus-infected Sf9 insect cells, used as neat supernatant and captured by rat anti-mCk antibody
Test: Adhesion of HUT 78 cells to MAdCAM-1/mCk fusion protein bound via capture antibody
Assay type: cell-based
Details: for IC50: HUT 78 cell adhesion to MAdCAM-1/mCk, average of two determinations; for inhibition at 100 µM: HuT78, read-out: % Adhesion Inhibition; for % Adhesion Inhibition 500 μM: 500 μM compound, HUT 78 cells, Mn2+ activated
Description: The compounds of the present invention were evaluated for their biological properties.
A soluble fusion protein comprising murine MAdCAM-1 was produced in a baculovirus expression system and used in the adhesion assay. A fusion gene in which sequences encoding the signal peptide and extracellular domain of murine MAdCAM-1 were fused to sequences encoding a constant region of the murine kappa light chain (mCk) was constructed, and cloned into a baculovirus shuttle vector. Fusion protein produced from the resulting construct contained the integrin binding sequences of murine MAdCAM-1 at the amino-terminus, and the mCk sequence at the carboxy-terminus. Recombinant baculovirus encoding the fusion protein was harvested from infected Sf9 insect cells.
Human T-cell lymphoma cells (HUT 78 cells) activated with Mn^+2 were used for the adhesion assay in a 96-well format. HUT 78 cells were labelled by preincubation with ECECF-AM stain (Molecular Probes). Assays were conducted in a final volume of 200 μl. The adhesion of HUT 78 cells to MAdCAM-1/mCk fusion protein bound to wells via rat anti-mCk capture antibody was assessed in the presence or absence of each compound. […] Percent inhibition and IC50 values were determined.
HUT 78 cells (a human T cell lymphoma line; American Type Culture Collection, Accession No. ATCC TIB 161) were maintained in culture for up to one month in RPMI 1640 supplemented with 10% FCS, 20 mM HEPES, and Pen-Strep (1:100). Just prior to use in adhesion assays, cells were labeled with BCECF-AM as follows: 1×10^7 cells were pelleted at 1000 rpm for 10 minutes and resuspended in 25 mL cold PBS (Phosphate Buffered Saline). The cells were pelleted again, resuspended in cold PBS, and pelleted again. The cell pellet was resuspended in 25 ml PBS and labeled with 50 μl BCECF-AM (1 μg/μL in DMSO) for 30 minutes at 37° C. (BCECF-AM; 2′,7′-bis-(2-carboxyethyl)-5-(and-6)-carboxyflourescein, acetoxymethyl ester). The labeled cells were pelleted at 700 rpm for 10 minutes, resuspended in 25 ml cold Assay Buffer and pelleted.
The assay was performed in a 96-well format. Plates were coated overnight at 4° C. with 53 μl/well of a 5 μg/mL solution of rat anti-mCk in carbonate buffer. The plates were blocked for 1 hour at 37° C. with 100 μL/well of 1% BSA in PBS. The BSA/PBS solution was removed, and 50 μL of MAdCAM-mCk supernatant was added neat to each well. The assay was conducted under conditions in which capture antibody was the limiting reagent.
Cell adhesion was measured in the presence or absence of compounds. The compounds were resuspended in 100% DMSO, subsequently diluted 1:10 in water, and finally diluted again 1:10 in the assay: 50 μL of 2X Assay Bufler, 30 μL water, 20 μL of compound were added to each well. […] Cell adhesion occurred in 30 minutes at ambient temperature, after which plates were washed with 50 mM Tris/2 mM MnCl2, pH 7.2 using an EL 404 Microplate Autowasher (BIO-TEK Instruments) using the following wash parameters: wash volume=500 μL; two wash cycles; wash depth=80; aspirating after each wash.
Additional determinations were conducted as needed, so that each IC50 was determined over a range which encompassed the IC50. Over this range, Four different concentrations were tested in duplicate.
For each compound, a ratio was determined as follows: An average of the readings from duplicate wells was divided by an average of eight control wells (adhesion in the absence of any compound). […] In addition, the concentration (μM) of compound used was plotted against the resulting ratios.
The IC50 was then determined using Kaleidograph software (Abelbeck Software). The complete procedure was repeated again using duplicate wells for each point.

| Molecule | % Adhesion Inhibition 500 μM | other results |
| --- | --- | --- |
| CC(C)C[C@H](NC(=O)[C@H](CO)NC(=O)[C@@H](NC(=O)[C@H](Cc1ccc(O)cc1)NC(=O)[C@H](CC(C)C)NC(=O)CCCc1ccc2ccc3cccc4ccc1c2c34)[C@@H](C)O)C(N)=O [Example 42, Pba-Leu-Tyr-Thr-Ser-Leu] ({Butanoyl(4-pyren-1-yl)}-LYTSL-NH2) | – | inhibition at 500 µM (HuT78, read-out: % Adhesion Inhibition 500 μM): 100%; IC50 (IC50 (μM)): 30 µM |
| CC(=O)N(C)[C@@H](CC(C)C)C(=O)N[C@@H](CC(=O)O)C(=O)N[C@H](C(=O)N[C@@H](CO)C(=O)N[C@@H](CC(C)C)C(N)=O)[C@@H](C)O [Example 49, Ac-MeLeu-Asp-Thr-Ser-Leu] | – | IC50 (read-out: IC50): 150 µM |
| CC(C)C[C@H](NC(=O)[C@H](CO)NC(=O)[C@@H](NC(=O)[C@H](CC(=O)O)NC(=O)C1CCCC1)[C@@H](C)O)C(N)=O [Example 50, Cpc-Asp-Thr-Ser-Leu] (Cyclopentanecarbonyl-DTSL-NH2) | – | IC50 (read-out: IC50): 8.9 µM |
| CC(C)C[C@H](NC(=O)[C@H](CO)NC(=O)[C@@H](NC(=O)[C@H](CC(=O)O)NC(=O)CCCc1ccc2ccc3cccc4ccc1c2c34)[C@@H](C)O)C(N)=O [Example 51, Pba-Asp-Thr-Ser-Leu] ({Butanoyl(4-pyren-1-yl)}-DTSL-NH2) | – | inhibition at 100 µM: 100%; IC50 (IC50 (μM)): 13.3 µM |
| C[C@@H](O)[C@H](NC(=O)[C@H](CC(=O)O)NC(=O)c1ccc2ccc3cccc4ccc1c2c34)C(N)=O [Example 52, Pca-Asp-Thr] | – | IC50 (read-out: IC50): 11 µM |
| C[C@@H](O)[C@H](NC(=O)[C@H](CC(=O)O)NC(=O)CCCc1ccc2ccc3cccc4ccc1c2c34)C(N)=O [Example 53, Pba-Asp-Thr] | – | inhibition at 100 µM: 100%; IC50 (IC50 (μM)): 13.5 µM |
| Ac-Arg-Gly-Leu-Asp-Thr-Ser-Leu-Gly (Ac-RGLDTSLG; not fully specified (C-terminus); printed as Ac-Arg-Gly-Leu-Asp-Thr-Ser-Leu-Gly) [Example 59] | 75% | – |
| Ac-Arg-Val-His-Trp-Arg-Gly-Leu-Asp-Thr-Ser-Leu-Gly-Ser-Val-Gln (Ac-RVHWRGLDTSLGSVQ; not fully specified (C-terminus); printed as Ac-Arg-Val-His-Trp-Arg-Gly-Leu-Asp-Thr-Ser-Leu-Gly-Ser-Val-Gln) [Example 62] | 88% | – |
| Ac-His-Trp-Arg-Gly-Leu-Asp-Thr-Ser-Leu-Gly-Ser-Val (Ac-HWRGLDTSLGSV; not fully specified (C-terminus); printed as Ac-His-Trp-Arg-Gly-Leu-Asp-Thr-Ser-Leu-Gly-Ser-Val) [Example 61] | 71% | – |
| Ac-Leu-Asp-Thr-Ser-Leu (Ac-LDTSL; not fully specified (C-terminus); printed as Ac-Leu-Asp-Thr-Ser-Leu) [Example 58] | 71% | – |
| Ac-Lle-Asp-Thr-Ser-Leu [Example 46] | 17% | – |
| Ac-Trp-Arg-Gly-Leu-Asp-Thr-Ser-Leu-Gly-Ser (Ac-WRGLDTSLGS; not fully specified (C-terminus); printed as Ac-Trp-Arg-Gly-Leu-Asp-Thr-Ser-Leu-Gly-Ser) [Example 60] | 71% | – |
| MeLeu-Leu-Asp-Thr-Ser-Leu ([NMeL]LDTSL) [Example 27] | 54% | IC50 (read-out: IC50): 256 µM |
| NH2-Arg-Val-His-Trp-Arg-Gly-Leu-Asp-Thr-Ser-Leu-Gly-Ser-Val-Gln (H-RVHWRGLDTSLGSVQ; not fully specified (C-terminus); printed as NH2-Arg-Val-His-Trp-Arg-Gly-Leu-Asp-Thr-Ser-Leu-Gly-Ser-Val-Gln) [Example 57] | 90% | – |
| NH2-His-Trp-Arg-Gly-Leu-Asp-Thr-Ser-Leu-Gly-Ser-Val (H-HWRGLDTSLGSV; not fully specified (C-terminus); printed as NH2-His-Trp-Arg-Gly-Leu-Asp-Thr-Ser-Leu-Gly-Ser-Val) [Example 56] | 80% | – |
| NH2-Leu-Asp-Thr-Ser-Leu (H-LDTSL; not fully specified (C-terminus); printed as NH2-Leu-Asp-Thr-Ser-Leu) [Example 54] | 22% | – |
